# Reference: patent US4526787A, “N-heterocyclic retinoic acid analogues” (SRI International, priority 1983, dated 1985)
# What was measured:
# [1] = tested on: Hamster Tracheal Organ Culture; experiment: Tracheal organ culture assay: reversal of keratinization; assay type: cell-based
# Protocol: (§1) The ODC assay measures a compound's ability to prevent the induction of ODC. The tracheal organ culture assay measures a compound's ability to reverse keratinization.
# The tracheal organ culture assay is carried out as follows. Tracheas are taken from hamsters that are in very early stages of vitamin A deficiency and placed in organ culture. At the time of culture, the animals are still gaining weight; the tracheal epithelium is generally low columnar or cuboidal, with only occasional patches of squamous metaplasia. Each trachea is opened from the larynx to the carina along the membranous dorsal wall and cultured in a serum-free medium (CMRL-1066; with crystalline bovine insulin, 0.1 μg/ml; hydrocortisone hemisuccinate, 0.1 μg/ml; glutamine, 2 mM; penicillin, 100 units/ml; and streptomycin,100 μg/ml, added). Cultures are gassed with 50% oxygen, 45% nitrogen, and 5% CO2. The culture dishes are rocked at 35.5-36.0 degrees to allow the tracheas contact with both gas and medium. All tracheas are grown in medium containing no retinoid for the first 3 days. At the end of 3 days, some tracheas are harvested; almost of these tracheas have significant squamous metaplasia, and approximately 60% have keratinized lesions. The remaining tracheas are then divided into different groups which are treated with either: (1) retinoid dissolved in dimethylsulfoxide (final concentration of DMSO in culture medium is never greater than 0.1%) or (2) an equivalent amount of DMSO alone. Culture medium is changed three times a week, and all of the remaining tracheas are harvested at the end of 10 days in culture. Tracheas are fixed in 10% buffered formalin and embedded in paraffin. Cross sections of five micrometers are made through the mid-portion, stained with hematoxylin and eosin, and then scored with a microscope for the presence of keratin and keratohyaline granules, both of which are found in approximately 90% of control cultures that received no retinoid for the entire 10 day culture period.
# [2] = tested on: Ornithine Decarboxylase; experiment: ODC assay: inhibition of induction of ornithine decarboxylase by TPA in mouse skin; assay type: in vivo, mouse (female Charles River CD-1); conditions: topical, 1 hour before TPA (17 nmol)
# Protocol: as §1
# The ODC assay is carried out as follows. Female Charles River CD-1 mice from Charles River Breeding Laboratories, Wilmington, Mass., are used (age 7 to 9 weeks). The dorsal hair of the mice is shaved 1 to 2 days before testing, and only mice showing no hair regrowth are used. […] The test compound, at one of three dose levels (1.7, 17 and 170 nmol), dissolved in 0.2 mL of acetone is applied 1 hour before the TPA treatment to the test groups; the control group is treated with acetone alone. The mice are killed by cervical dislocation five hours after TPA treatment. Determinations are done in triplicate.
# The epidermis is obtained from the sacrificed animals. To obtain sufficient material, the dorsal skins from 2 to 3 mice in each treatment group are pooled. […]
# The supernatant fraction remaining after centrifugation of the homogenate at 10,000×g for 30 seconds at 0° C. is used for the enzyme assay. Enzyme activity is determined using the microassay for ODC as described by Verma and Boutwell to measure the release of ^14 CO2 from DL-[1-^14 C]-ornithine (58 mCi/mmol) after incubation with the 10,000×g supernatant. […]
Structure (SMILES),"Reversal of Keratinization in Hamster Tracheal Organ Culture, Active/Total Cultures ([1]; Conc 10^-8 M)","Reversal of Keratinization in Hamster Tracheal Organ Culture, Active/Total Cultures (%) ([1]; Conc 10^-8 M)","Reversal of Keratinization in Hamster Tracheal Organ Culture, Active/Total Cultures ([1]; Conc 10^-9 M)","Reversal of Keratinization in Hamster Tracheal Organ Culture, Active/Total Cultures (%) ([1]; Conc 10^-9 M)","Reversal of Keratinization in Hamster Tracheal Organ Culture, Active/Total Cultures ([1]; Conc 10^-10 M)","Reversal of Keratinization in Hamster Tracheal Organ Culture, Active/Total Cultures (%) ([1]; Conc 10^-10 M)","Reversal of Keratinization in Hamster Tracheal Organ Culture, Active/Total Cultures ([1]; Conc 10^-11 M)","Reversal of Keratinization in Hamster Tracheal Organ Culture, Active/Total Cultures (%) ([1]; Conc 10^-11 M)","Inhibition of Induction of Ornithine Decarboxylase by 12-O-Tetradecanoylphorbol-13-acetate in Mouse Skin, % Inhibition of Control ([2]; Dose 1.7 nmol) [%]","Inhibition of Induction of Ornithine Decarboxylase by 12-O-Tetradecanoylphorbol-13-acetate in Mouse Skin, % Inhibition of Control ([2]; Dose 17 nmol) [%]"
"CCOC(=O)c1ccc(/C=C(C)/C=C/C2=C(C)CCCC2(C)C)cn1 [Example, (E)-1-(2-Carbethoxy-5-pyridyl)-2-methyl-4-(2,6,6-trimethyl-1-cyclohexen-1-yl)-1,3-butadiene]",7/7,100,8/14,57,4/14,29,1/7,14,29,68
CC1=C(/C=C/C(C)=C/C=C/C(C)=C/C(=O)O)C(C)(C)CCC1 [Retinoic Acid],–,100,–,88,–,52,–,–,–,–
